In PubChem BioAssay AID1259407 (Chemical Carcinogenesis Research Information System (CCRIS), 2018):
Activity calls are given as the source filed them. How the calls were made is not given here.

Test system: CCRIS mutagenicity, Ames/micronucleus/aberration tests
Assay: CCRIS mutagenicity studies

Measured: mutagenic call

CC(=O)Nc1ccc(O)cc1
active: End Point: IN VITRO MICRONUCLEUS, Test System: CHL/IU CELLS, Metabolic Activation: NONE active; positive | End Point: IN VITRO MICRONUCLEUS, Test System: RAT KIDNEY FIBROBLAST NRK-49F, Metabolic Activation: NONE active; positive | Test System: AMES SALMONELLA TYPHIMURIUM, Strain/Indicator: TA100, Metabolic Activation: HAMSTER, LIVER, S-9, PCB, Method: PREINCUBATION active; positive
inactive: Test System: AMES SALMONELLA TYPHIMURIUM, Strain/Indicator: TA97, Metabolic Activation: NONE, Method: STANDARD PLATE inactive; negative | Test System: AMES SALMONELLA TYPHIMURIUM, Strain/Indicator: TA97, Metabolic Activation: RAT, LIVER, S-9, AROCLOR 1254, Method: STANDARD PLATE inactive; negative | Test System: AMES SALMONELLA TYPHIMURIUM, Strain/Indicator: TA98, Metabolic Activation: GUINEA PIG, LIVER, S-9, PCB, Method: PREINCUBATION inactive; negative | Test System: AMES SALMONELLA TYPHIMURIUM, Strain/Indicator: TA98, Metabolic Activation: HAMSTER, LIVER, S-9, AROCLOR 1254 (10%), Method: PREINCUBATION inactive; negative | Test System: AMES SALMONELLA TYPHIMURIUM, Strain/Indicator: TA98, Metabolic Activation: HAMSTER, LIVER, S-9, AROCLOR 1254, Method: STANDARD PLATE inactive; negative | Test System: AMES SALMONELLA TYPHIMURIUM, Strain/Indicator: TA98, Metabolic Activation: HAMSTER, LIVER, S-9, PCB, Method: PREINCUBATION inactive; negative | Test System: AMES SALMONELLA TYPHIMURIUM, Strain/Indicator: TA98, Metabolic Activation: MOUSE, LIVER, S-9, AROCLOR 1254, Method: STANDARD PLATE inactive; negative | Test System: AMES SALMONELLA TYPHIMURIUM, Strain/Indicator: TA98, Metabolic Activation: MOUSE, LIVER, S-9, PCB, Method: PREINCUBATION inactive; negative | Test System: AMES SALMONELLA TYPHIMURIUM, Strain/Indicator: TA98, Metabolic Activation: NONE, Method: PREINCUBATION inactive; negative | Test System: AMES SALMONELLA TYPHIMURIUM, Strain/Indicator: TA98, Metabolic Activation: NONE, Method: STANDARD PLATE inactive; negative | Test System: AMES SALMONELLA TYPHIMURIUM, Strain/Indicator: TA98, Metabolic Activation: RAT, LIVER, S-9, AROCLOR 1254 (10%), Method: PREINCUBATION inactive; negative | Test System: AMES SALMONELLA TYPHIMURIUM, Strain/Indicator: TA98, Metabolic Activation: RAT, LIVER, S-9, AROCLOR 1254, Method: STANDARD PLATE inactive; negative | Test System: AMES SALMONELLA TYPHIMURIUM, Strain/Indicator: TA98, Metabolic Activation: RAT, LIVER, S-9, ETHANOL, Method: STANDARD PLATE inactive; negative | Test System: AMES SALMONELLA TYPHIMURIUM, Strain/Indicator: TA98, Metabolic Activation: RAT, LIVER, S-9, PCB, Method: PREINCUBATION inactive; negative | Test System: AMES SALMONELLA TYPHIMURIUM, Strain/Indicator: TA98, Metabolic Activation: RAT, LIVER, S-9, PYRAZOLE, Method: STANDARD PLATE inactive; negative | Test System: AMES SALMONELLA TYPHIMURIUM, Strain/Indicator: TA100, Metabolic Activation: GUINEA PIG, LIVER, S-9, PCB, Method: PREINCUBATION inactive; negative | Test System: AMES SALMONELLA TYPHIMURIUM, Strain/Indicator: TA100, Metabolic Activation: HAMSTER, LIVER, S-9, AROCLOR 1254 (10%), Method: PREINCUBATION inactive; negative | Test System: AMES SALMONELLA TYPHIMURIUM, Strain/Indicator: TA100, Metabolic Activation: HAMSTER, LIVER, S-9, AROCLOR 1254, Method: STANDARD PLATE inactive; negative | Test System: AMES SALMONELLA TYPHIMURIUM, Strain/Indicator: TA100, Metabolic Activation: MOUSE, LIVER, S-9, AROCLOR 1254, Method: STANDARD PLATE inactive; negative | Test System: AMES SALMONELLA TYPHIMURIUM, Strain/Indicator: TA100, Metabolic Activation: MOUSE, LIVER, S-9, PCB, Method: PREINCUBATION inactive; negative | Test System: AMES SALMONELLA TYPHIMURIUM, Strain/Indicator: TA100, Metabolic Activation: NONE, Method: PREINCUBATION inactive; negative | Test System: AMES SALMONELLA TYPHIMURIUM, Strain/Indicator: TA100, Metabolic Activation: NONE, Method: STANDARD PLATE inactive; negative | Test System: AMES SALMONELLA TYPHIMURIUM, Strain/Indicator: TA100, Metabolic Activation: RAT, LIVER, S-9, AROCLOR 1254 (10%), Method: PREINCUBATION inactive; negative | Test System: AMES SALMONELLA TYPHIMURIUM, Strain/Indicator: TA100, Metabolic Activation: RAT, LIVER, S-9, AROCLOR 1254, Method: STANDARD PLATE inactive; negative | Test System: AMES SALMONELLA TYPHIMURIUM, Strain/Indicator: TA100, Metabolic Activation: RAT, LIVER, S-9, ETHANOL, Method: STANDARD PLATE inactive; negative | Test System: AMES SALMONELLA TYPHIMURIUM, Strain/Indicator: TA100, Metabolic Activation: RAT, LIVER, S-9, PCB, Method: PREINCUBATION inactive; negative | Test System: AMES SALMONELLA TYPHIMURIUM, Strain/Indicator: TA100, Metabolic Activation: RAT, LIVER, S-9, PYRAZOLE, Method: STANDARD PLATE inactive; negative | Test System: AMES SALMONELLA TYPHIMURIUM, Strain/Indicator: TA102, Metabolic Activation: RAT, LIVER, S-9, ETHANOL, Method: STANDARD PLATE inactive; negative | Test System: AMES SALMONELLA TYPHIMURIUM, Strain/Indicator: TA102, Metabolic Activation: RAT, LIVER, S-9, PYRAZOLE, Method: STANDARD PLATE inactive; negative | Test System: AMES SALMONELLA TYPHIMURIUM, Strain/Indicator: TA1535, Metabolic Activation: HAMSTER, LIVER, S-9, AROCLOR 1254 (10%), Method: PREINCUBATION inactive; negative | Test System: AMES SALMONELLA TYPHIMURIUM, Strain/Indicator: TA1535, Metabolic Activation: HAMSTER, LIVER, S-9, AROCLOR 1254, Method: STANDARD PLATE inactive; negative | Test System: AMES SALMONELLA TYPHIMURIUM, Strain/Indicator: TA1535, Metabolic Activation: MOUSE, LIVER, S-9, AROCLOR 1254, Method: STANDARD PLATE inactive; negative | Test System: AMES SALMONELLA TYPHIMURIUM, Strain/Indicator: TA1535, Metabolic Activation: NONE, Method: PREINCUBATION inactive; negative | Test System: AMES SALMONELLA TYPHIMURIUM, Strain/Indicator: TA1535, Metabolic Activation: NONE, Method: STANDARD PLATE inactive; negative | Test System: AMES SALMONELLA TYPHIMURIUM, Strain/Indicator: TA1535, Metabolic Activation: RAT, LIVER, S-9, AROCLOR 1254 (10%), Method: PREINCUBATION inactive; negative | Test System: AMES SALMONELLA TYPHIMURIUM, Strain/Indicator: TA1535, Metabolic Activation: RAT, LIVER, S-9, AROCLOR 1254, Method: STANDARD PLATE inactive; negative | Test System: AMES SALMONELLA TYPHIMURIUM, Strain/Indicator: TA1535, Metabolic Activation: RAT, LIVER, S-9, PYRAZOLE, Method: STANDARD PLATE inactive; negative | Test System: AMES SALMONELLA TYPHIMURIUM, Strain/Indicator: TA1537, Metabolic Activation: HAMSTER, LIVER, S-9, AROCLOR 1254 (10%), Method: PREINCUBATION inactive; negative | Test System: AMES SALMONELLA TYPHIMURIUM, Strain/Indicator: TA1537, Metabolic Activation: HAMSTER, LIVER, S-9, AROCLOR 1254, Method: STANDARD PLATE inactive; negative | Test System: AMES SALMONELLA TYPHIMURIUM, Strain/Indicator: TA1537, Metabolic Activation: MOUSE, LIVER, S-9, AROCLOR 1254, Method: STANDARD PLATE inactive; negative | Test System: AMES SALMONELLA TYPHIMURIUM, Strain/Indicator: TA1537, Metabolic Activation: NONE, Method: PREINCUBATION inactive; negative | Test System: AMES SALMONELLA TYPHIMURIUM, Strain/Indicator: TA1537, Metabolic Activation: NONE, Method: STANDARD PLATE inactive; negative | Test System: AMES SALMONELLA TYPHIMURIUM, Strain/Indicator: TA1537, Metabolic Activation: RAT, LIVER, S-9, AROCLOR 1254 (10%), Method: PREINCUBATION inactive; negative | Test System: AMES SALMONELLA TYPHIMURIUM, Strain/Indicator: TA1537, Metabolic Activation: RAT, LIVER, S-9, AROCLOR 1254, Method: STANDARD PLATE inactive; negative | Test System: AMES SALMONELLA TYPHIMURIUM, Strain/Indicator: TA1537, Metabolic Activation: RAT, LIVER, S-9, PYRAZOLE, Method: STANDARD PLATE inactive; negative | Test System: AMES SALMONELLA TYPHIMURIUM, Strain/Indicator: TA1538, Metabolic Activation: HAMSTER, LIVER, S-9, AROCLOR 1254, Method: STANDARD PLATE inactive; negative | Test System: AMES SALMONELLA TYPHIMURIUM, Strain/Indicator: TA1538, Metabolic Activation: MOUSE, LIVER, S-9, AROCLOR 1254, Method: STANDARD PLATE inactive; negative | Test System: AMES SALMONELLA TYPHIMURIUM, Strain/Indicator: TA1538, Metabolic Activation: NONE, Method: STANDARD PLATE inactive; negative | Test System: AMES SALMONELLA TYPHIMURIUM, Strain/Indicator: TA1538, Metabolic Activation: RAT, LIVER, S-9, AROCLOR 1254, Method: STANDARD PLATE inactive; negative | Test System: TEST SALMONELLA TYPHIMURIUM, Strain/Indicator: TA1537, Metabolic Activation: RAT, LIVER, S-9, AROCLOR 1254, Method: STANDARD PLATE inactive; negative
